Results as given in PMC4057422, “Apoptotic Death of Prostate Cancer Cells by a Gonadotropin-Releasing Hormone-II Antagonist” (PLoS ONE, 2014).
Like-named read-outs stand apart in the source and are kept apart here. Square brackets hold non-standard residues; d marks the D form. Ends that are not written are not given here. Peptide text beside a SMILES is read from it. dPhe(4-Cl) = N[C@H](Cc1ccc(Cl)cc1)C(=O)O; d2Nal = N[C@H](Cc1ccc2ccccc2c1)C(=O)O; dCit = NC(=O)NCCC[C@@H](N)C(=O)O; d3Pal = N[C@H](Cc1cccnc1)C(=O)O

How the values were obtained:
PC3 cells [1] = format: cell-based, human; conditions: for growth inhibition of PC3 cells: 10 µM
Experimental: (§1) Cells were seeded in 12-well plates in triplicate (1×10^4 cells/well). After 24 h, cells were treated with the indicated concentrations of GnRH-II antagonists solubilized in 0.1% DMSO every 24 h for the indicated number of days. Then, cells were washed with phosphate-buffered saline (PBS), dissociated with trypsin/EDTA, and re-suspended in 500 µl complete growth media. Trypan blue (0.4%) dye-excluding cells were counted under an inverted microscope (Olympus, Tokyo, Japan).

DU145 cells = test: Cell viability assay, DU145; format: cell-based, human; conditions: 10 µM, 5% serum, 3 days
Experimental: as §1

[2] = Tolerability in nude mice (histology, blood chemistry, injection site); format: in vivo, male athymic nude mice (BALB/c-nu)
Experimental: Six-week-old male athymic nude mice (BALB/c-nu) were obtained from Harlan (Houston, TX). Mice were housed under specific pathogen-free conditions in an individually ventilated caging system. All experimental procedures were performed after receiving approval from the Institutional Animal Care and Use Committee of Clinical Research Institute in Seoul National University Hospital. PC3 cells (6×10^6) were injected into the right flank of the mice. Ten days after cell injection, tumors with volumes of around 20–25 mm^3 developed in most mice; tumor volumes were measured every day. Tumor volumes were determined by two perpendicular dimensions [length (L) and width (W)] and the height (H), measured using Vernier calipers (the formula is V = (π/6) × (W×L×H). From this time, SN09-2 (acetic acid form) dissolved in 5% N,N-dimethylacetamide (DMA), 10% glycerol, and 85% distilled water which is biocompatible solvent were subcutaneously injected into the mice for 25 consecutive days. The tumor size in each mouse was measured every day. Six to seven mice were used for each experimental group.

[3] = target: T1, green monkey GnRHR-II (gmGnRHR-II) (Chlorocebus aethiops, UniProt Q95MH6); test: Reporter gene assay (SRE-luc), antagonism of GnRH-II at gmGnRHR-II; format: cell-based
T1 construct: expressed in transfected cells; host or cells: CV-1 cells
T1 sequence (Q95MH6 1-379): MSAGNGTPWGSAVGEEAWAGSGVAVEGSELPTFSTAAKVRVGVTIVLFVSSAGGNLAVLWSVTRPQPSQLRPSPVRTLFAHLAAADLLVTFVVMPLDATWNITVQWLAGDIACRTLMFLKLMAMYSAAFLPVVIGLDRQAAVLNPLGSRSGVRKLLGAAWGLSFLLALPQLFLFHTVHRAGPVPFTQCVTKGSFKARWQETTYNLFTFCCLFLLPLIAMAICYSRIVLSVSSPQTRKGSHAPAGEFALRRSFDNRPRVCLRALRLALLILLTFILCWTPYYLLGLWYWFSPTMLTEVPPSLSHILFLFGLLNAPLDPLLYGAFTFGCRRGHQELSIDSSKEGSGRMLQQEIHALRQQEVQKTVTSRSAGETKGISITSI
Experimental: (§2) CV-1 Cells were culture overnight in 24-well plates and subsequently transfected with liposome complex containing pGL3/SRE-luc plasmids with bull frog GnRHR-II (bfGnRHR-II) or green monkey GnRHR-II (gmGnRHR-II). Another 48 h later, cells treated with GnRH-II (1 nM for bfGnRHR-II, 10 nM gmGnRHR-II) and different concentration of SN09-2 or Trp-1 for 6 h were washed with PBS and solublized with lysis buffer. Luciferase activity of cell extracts was determined using the standard luciferase assay system from BioTek Instrument, Inc. (Winooski, VT). To determine transfection efficiency, luciferase activities were normalized to the β-gal activity. All data are calculated from at least three independent experiments normalized to untreated groups.

[4] = Dissolution in solvents / at the injection site; format: physicochemical
caspase-3 (PC3 cells) = conditions: ref [28], cited from earlier work
Excerpt: Next, we examined caspase-3 activation by SN09-2. […] We also investigated caspase-3 cleavage in LNCaP and DU145 cells. […] Immunocytochemistry for actively cleaved caspase- ... || Mitochondrial proteins play pivotal roles in organelle-specific functions such as energy conversion, calcium hemeostasis, ROS generation, and electron transport, [40]. The disturbance of such mitochondrial functions is a critical step towards cell death through the activation of either apoptotic or autophagic pathways, [42]. GRP75 a mitochondrial chaperon is an essential protein for mitochondria biogenesis by refolding and sorting mitochondrial proteins. Elevation of GRP75 is easily observed in various cancer cells, while knockdown of the protein induces mitochondrial dysfunc ...

cytochrome c (PC3 cells) = conditions: ref [28]; cited from earlier work
Excerpt: (§3) Mitochondrial proteins play pivotal roles in organelle-specific functions such as energy conversion, calcium hemeostasis, ROS generation, and electron transport, [40]. The disturbance of such mitochondrial functions is a critical step towards cell death through the activation of either apoptotic or autophagic pathways, [42]. GRP75 a mitochondrial chaperon is an essential protein for mitochondria biogenesis by refolding and sorting mitochondrial proteins. Elevation of GRP75 is easily observed in various cancer cells, while knockdown of the protein induces mitochondrial dysfunc ...

prostate cancer cells [5] = conditions: ref [28]; cited from earlier work
Excerpt: as §3

PC3 xenograft tumor = conditions: cited from earlier work; for growth of tumor formed by implanted PC3 cells: previous studies, ref [27], [28]
Experimental: PC3 cells were implanted into the flanks of nude mice. After tumor formation, SN09-2 was injected into the mice at different concentrations for 25 consecutive days. […] In the group treated with 0.1 mg SN09-2, tumor volumes were reduced by 27%, compared with the vehicle-treated group (Fig. 7A, B). […] The di ... || Both GnRH-I agonists and antagonists are able to inhibit the growth of cancer cells in sex hormone-regulated tissues including ovarian cancer and prostate cancer, by directly stimulating cell death pathways as well as by decreasing gonadotropin and sex hormone levels, [32], [33]. Because of the sequence similarity between GnRH-I and GnRH-II, GnRH-II and its antagonists are considered to exert similar effects on these types of cancer, although its receptor has not been identified in human and its action mechanisms have not been well elucidated. In some reports, GnRH-II has been shown ...

PC3 cells [6] = conditions: FITC-conjugated form, prostate cancer cells; ref [28]; cited from earlier work
Excerpt: In previous reports, we and other groups observed that radiolabeled GnRH-II bound to prostate cancer cells through interaction with an approximately 80-kDa protein whose identity was designated as glucose-regulated protein 75 (GRP75) based on liquid chromatography-electrospray ionization-tandem mass spectrometry, [28], [29]. […] Since GRP75 is found predominantly in mitochondria, the final destination of SN09-2 may not be the cell surface. To explore the subcellular location of the antag ...

[7] = target: bull frog GnRHR-II (bfGnRHR-II) (Aquarana catesbeiana, UniProt Q9DE60); test: Reporter gene assay (SRE-luc), antagonism of GnRH-II at bfGnRHR-II; format: cell-based; conditions: CV-1 cells, GnRH-II 1 nM, antagonist 6 h, luciferase normalized to β-gal, at least three independent experiments
Experimental: as §2

prostate cancer cells [8] = conditions: cited from earlier work; for displacement of radiolabeled GnRH-II binding: various human prostate cancer cells, ref [27]
Excerpt: GnRH-II is likely to function on prostate cancer cells by interacting with unknown proteins, based on our previous observation that radiolabeled GnRH-II was able to bind various human prostate cancer cells.

human T cells = conditions: ref [20]; cited from earlier work
Excerpt: In most vertebrates, the other type of GnRH, called GnRH-II, is identified, which is structurally conserved in evolution from fish to mammals [12]–[14]. GnRH-II is expressed not only in the brain but also in peripheral reproductive and immune tissues. This wide expression pattern may confer a variety of physiological functions on the peptide. Similar to GnRH-I, GnRH-II is able to regulate reproduction in females by stimulating the secretion of LH and FSH [16], [17].

ovarian cancer cells = conditions: cited from earlier work
Excerpt: GnRH-II is likely to function on prostate cancer cells by interacting with unknown proteins, based on our previous observation that radiolabeled GnRH-II was able to bind various human prostate cancer cells. […] Because of the sequence similarity between GnRH-I and GnRH-II, GnRH-II and its antagonists are considered to exert similar effects on these types of cancer, although its receptor has not been identified in human and its action mechanisms have not been well elucidated. In some reports, GnRH-II has been shown ...

Chain of bull frog GnRHR-II (bfGnRHR-II) (Q9DE60 entry or part of it): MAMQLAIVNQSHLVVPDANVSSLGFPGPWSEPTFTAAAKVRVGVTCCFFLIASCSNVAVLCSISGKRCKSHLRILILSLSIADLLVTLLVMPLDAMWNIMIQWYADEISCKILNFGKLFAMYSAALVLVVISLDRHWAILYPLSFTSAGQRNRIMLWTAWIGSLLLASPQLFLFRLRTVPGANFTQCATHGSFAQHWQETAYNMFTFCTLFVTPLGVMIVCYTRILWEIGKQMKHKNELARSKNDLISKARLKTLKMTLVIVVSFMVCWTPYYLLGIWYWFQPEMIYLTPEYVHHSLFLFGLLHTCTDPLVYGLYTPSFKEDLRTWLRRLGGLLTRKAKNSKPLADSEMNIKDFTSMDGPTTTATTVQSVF

For `CC(=O)N[C@H](Cc1ccc2ccccc2c1)C(=O)N[C@H](Cc1ccc(Cl)cc1)C(=O)N[C@H](Cc1cccnc1)C(=O)N[C@@H](CO)C(=O)N[C@@H](Cc1ccccc1)C(=O)N[C@H](CCCCN)C(=O)N[C@@H](Cc1c[nH]c2ccccc12)C(=O)N[C@@H](Cc1ccc(O)cc1)C(=O)N[C@@H](CCCNC(=N)N)C(=O)N[C@H](C)C(N)=O` [SN09-2, Ac-D-Nal(2)-D-phe(4Cl)-D-Pal(3)-Ser-Phe-D-Lys-Trp-Tyr-Arg-D-Ala-NH2] (Ac-[d2Nal][dPhe(4-Cl)][d3Pal]SF[dK]WYR[dA]-NH2), the “growth inhibition of PC3 cells” value (PC3 cells [1]; 5% serum, 4 days) was 91%, the “growth inhibition of PC3 cells” value (PC3 cells [1]; 10% serum, 4 days) was 88% and the “growth inhibition of PC3 cells” value (PC3 cells [1]; higher serum concentrations, 4 days) was “more than 85%”. The “growth inhibition of PC3 cells” value (PC3 cells [1]; low serum concentrations (less than 2% FBS), within 4 days) was “more than 95%”, the “growth inhibition of DU145 cells” value (DU145 cells) was “≈ 50%” and the “liver and kidney histopathology” value ([2]; after 25 days subcutaneous treatment) was “no histo-pathological abnormalities”. For the same compound, the “serum alkaline phosphatase, aspartate aminotransferase, alanine aminotransferase, urea nitrogen, creatinine, total bilirubin” value ([2]; after 25 days subcutaneous treatment, data not shown) was “did not differ between vehicle and SN09-2-treated mice”, the “skin irritation / densely populated cells at the injection site” value ([2]; mice, several days after subcutaneous injection) was “no skin irritation or densely populated cells were detected” and the edema-like phenotype ([2]; mice, subcutaneous treatment) was “not observed”. For the same compound, the “adverse effects to the animal” value ([2]; xenograft model) was “without any apparent adverse effects”, the IC50 [3] was 1.9 µM and the “solubility in 5% DMA” value ([4]; 5% N,N′-dimethylacetamide (DMA) formulation) was “appeared well dissolved”. For the same compound, the “solubility in DMSO” value ([4]; DMSO, solvent for in vitro treatment) was “dissolved well in DMSO”.

For “Ac-[d2Nal][dPhe(4-Cl)][d3Pal]SY[dCit]WYP[dA]-NH2 [Trp-1, GnRH-II antagonist of the authors' earlier report]”, the “PC3 cell growth inhibition, dose response” value (PC3 cells [1]; different concentrations, 5% serum, 3 days, versus DMSO control) is given as “significantly attenuated cell growth in a dose-dependent manner”, the “activation of the apoptotic machinery” value (caspase-3 (PC3 cells); previous results) is given as “could not trigger the activation of the apoptotic machinery” and the caspase-3 activation (caspase-3 (PC3 cells)) is given as “does not induce”. For the same compound, the “antagonism of GnRH-II at gmGnRHR-II” value ([3]; CV-1 cells, SRE-luc reporter, GnRH-II 10 nM, antagonist 6 h, luciferase normalized to β-gal, at least three independent experiments) was “partial”, the cytochrome c release (cytochrome c (PC3 cells)) was “does not induce” and the autophagic cell death (prostate cancer cells [5]) was “induces autophagic cell death”. The “inhibitory activity on tumor volume” value (PC3 xenograft tumor; 0.1 mg, PC3 xenograft, quoted comparison, ref [28]) was 60%, the “growth of tumor formed by implanted PC3 cells” value (PC3 xenograft tumor) was “inhibited growth of the tumor” and the “mitochondrial accumulation in presence of unlabeled GnRH-II” value (PC3 cells [6]) was “attenuated by unlabeled GnRH-II”. The IC50 [7] was 0.25 µM.

In the case of “FITC-conjugated GnRH-II: FITC-conjugated GnRH-II (QHWSHGWYPG; ends and bridges not checked; also: FITC-conjugated, site not given here; UniProt O43555 24-33, looked up)”, the “mitochondrial accumulation in presence of unlabeled GnRH-II” value (PC3 cells [6]) is given as “attenuated by unlabeled GnRH-II”.

For “GnRH-I: gonadotropin-releasing hormone-I synthesized in the hypothalamus”, the “displacement of radiolabeled GnRH-II binding” value (prostate cancer cells [8]) is listed as “not by GnRH-I”.

In the case of “GnRH-II: the other type of GnRH, structurally conserved in evolution from fish to mammals (QHWSHGWYPG; ends and bridges not checked; UniProt O43555 24-33, looked up)”, the “inhibition of proliferation of prostate cancer cells” value (prostate cancer cells [8]; ref [26], [27]) is listed as “inhibit the proliferation”, the “displacement of radiolabeled GnRH-II binding” value (prostate cancer cells [8]) is listed as “displaced by unlabeled GnRH-II” and the laminin receptor expression (human T cells) is listed as “stimulates laminin receptor expression”. The “inhibition of proliferation of ovarian cancer cells” value (ovarian cancer cells; ref [26], [27]) was “inhibit the proliferation” and the “anti-proliferative effect in ovarian cancer, versus GnRH-I” value (ovarian cancer cells; ref [33]) was “stronger anti-proliferative effect than that of GnRH-I”.

In the case of cetrorelix, the “block of GnRH-II-induced laminin receptor expression” value (human T cells) is listed as “not blocked” and the “growth of tumor formed by implanted PC3 cells” value (PC3 xenograft tumor) is listed as “very weak effect on tumor growth”.
